Assay results published in PubChem BioAssay (NCI).
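Briefly, cells in 96-well plates were exposed to five compound concentrations for 48 h, and endpoints were estimated by linear interpolation. TGI: concentration producing complete growth inhibition.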

Assays:
Test in all cases: NCI anticancer screen, dose series, 48 h
ACHN renal = tested on: ACHN renal
CAKI-1 renal = tested on: CAKI-1 renal
DU-145 prostate = tested on: DU-145 prostate
EKVX NSCLC = tested on: EKVX NSCLC
HCT-15 colon = tested on: HCT-15 colon
HT29 colon = tested on: HT29 colon
K-562 leukemia = tested on: K-562 leukemia
LOX IMVI melanoma = tested on: LOX IMVI melanoma
MALME-3M melanoma = tested on: MALME-3M melanoma
MDA-MB-231 breast = tested on: MDA-MB-231 breast
NCI/ADR-RES ovarian = tested on: NCI/ADR-RES ovarian
RPMI-8226 leukemia = tested on: RPMI-8226 leukemia
SF-268 CNS = tested on: SF-268 CNS
SF-295 CNS = tested on: SF-295 CNS
SF-539 CNS = tested on: SF-539 CNS
SK-MEL-5 melanoma = tested on: SK-MEL-5 melanoma
T-47D breast = tested on: T-47D breast
U251 CNS = tested on: U251 CNS
HCC-2998 colon = tested on: HCC-2998 colon
SNB-75 CNS = tested on: SNB-75 CNS

| SMILES | TGI (ACHN renal) | TGI (CAKI-1 renal) | TGI (DU-145 prostate) | TGI (EKVX NSCLC) | TGI (HCT-15 colon) | TGI (HT29 colon) | TGI (K-562 leukemia) | TGI (LOX IMVI melanoma) | TGI (MALME-3M melanoma) | TGI (MDA-MB-231 breast) | TGI (NCI/ADR-RES ovarian) | TGI (RPMI-8226 leukemia) | TGI (SF-268 CNS) | TGI (SF-295 CNS) | TGI (SF-539 CNS) | TGI (SK-MEL-5 melanoma) | TGI (T-47D breast) | TGI (U251 CNS) | TGI (HCC-2998 colon) | TGI (SNB-75 CNS) |
| --- | --- | --- | --- | --- | --- | --- | --- | --- | --- | --- | --- | --- | --- | --- | --- | --- | --- | --- | --- | --- |
| COc1ccc(CC2COc3cc(OC)cc(OC)c3C2=O)cc1 (stereo not given) | > 100 µM | 57.1 µM | 77.2 µM | 77.8 µM | > 100 µM | 40.4 µM | > 100 µM | > 100 µM | 75.3 µM | > 100 µM | 39.9 µM | 40.5 µM | > 100 µM | 48.3 µM | 37.3 µM | 68 µM | 56 µM | > 100 µM | – | – |
| COc1ccc(-c2c(C(C)=O)c(-c3ccccc3)n(C3OC(CO)C(O)C(O)C3O)c(=S)c2C#N)cc1 (stereo not given) | > 100 µM | > 100 µM | > 100 µM | > 100 µM | > 100 µM | > 100 µM | > 100 µM | > 100 µM | > 100 µM | > 100 µM | > 100 µM | – | > 100 µM | > 100 µM | > 100 µM | > 100 µM | > 100 µM | > 100 µM | > 100 µM | – |
| C#CCn1c(=O)c(I)cn(/C(=C/C(=O)OCC)C(=O)OCC)c1=O | 3.27 µM | 3.38 µM | 23.9 µM | 10.2 µM | 8.03 µM | 36.9 µM | – | > 48.5 µM | 4.27 µM | 29.5 µM | > 84 µM | 2.33 µM | 35.1 µM | > 59.2 µM | 12.3 µM | – | 2.28 µM | 32.1 µM | – | 31.2 µM |
| CC1(C)C2CCC1(C)C(N/C(Sc1ccccc1)=C(/C(Cl)=C(Cl)Cl)[N+](=O)[O-])C2 (stereo not given) | 26.3 µM | 28.5 µM | 61.1 µM | 57.8 µM | 24.1 µM | 30.7 µM | > 100 µM | – | 28.4 µM | 22 µM | 30.5 µM | – | 24.4 µM | 27.7 µM | 26.2 µM | – | 31.2 µM | 23.5 µM | 28.5 µM | 30.4 µM |
| C[C@@H](C(=O)O)N1C(c2ccco2)=C(/C(C=O)=C\c2ccco2)C(=O)/C1=C\c1ccco1 | > 100 µM | > 100 µM | > 100 µM | > 100 µM | > 100 µM | > 100 µM | > 100 µM | > 100 µM | > 100 µM | > 100 µM | > 100 µM | > 100 µM | > 100 µM | > 100 µM | > 100 µM | > 100 µM | > 100 µM | > 100 µM | – | – |
| O=C(O)CO[C@@]12C#C/C=C\C#C[C@@H]3N(C(=O)Oc4ccccc4)c4ccccc4[C@]14O[C@@]34CCC2 | > 100 µM | > 100 µM | > 100 µM | > 100 µM | 31.2 µM | > 100 µM | 92.9 µM | > 100 µM | – | 26.6 µM | > 100 µM | > 100 µM | 85.2 µM | – | > 100 µM | > 100 µM | 33.1 µM | 54.8 µM | 28.7 µM | – |
| CC(C)NC(=O)OCc1c2c(n(C)c1COC(=O)NC(C)C)-c1cc(Cl)c(Cl)cc1CC2 | > 100 µM | – | > 100 µM | > 100 µM | > 100 µM | > 100 µM | 41.6 µM | > 100 µM | > 100 µM | 55.3 µM | > 100 µM | 64.8 µM | > 100 µM | > 100 µM | > 100 µM | > 100 µM | > 100 µM | 40.6 µM | 32.7 µM | 81.7 µM |
| CCCCC1(NN=C2CCCCC2)C(=O)N(c2ccccc2)N(c2ccccc2)C1=O | > 100 µM | > 100 µM | > 100 µM | > 100 µM | > 100 µM | > 100 µM | 64.9 µM | – | – | > 100 µM | > 100 µM | > 100 µM | > 100 µM | > 100 µM | > 100 µM | > 100 µM | > 100 µM | > 100 µM | > 100 µM | > 100 µM |
| CCOC(=O)c1sc(=S)n(-c2ccc(Cl)cc2)c1-n1cc(-c2ccccc2)c(C#N)c1N | 40.9 µM | > 100 µM | 21.2 µM | 94.7 µM | > 100 µM | > 100 µM | > 100 µM | > 100 µM | – | 60.1 µM | 47.1 µM | > 100 µM | 8.6 µM | 33.6 µM | 50.6 µM | 84.5 µM | 27.8 µM | 32.7 µM | > 100 µM | 53.6 µM |
| Cc1ccc(C2(O)CSC(=NC34CC5CC(CC(C5)C3)C4)N2C(P(=O)(O)O)P(=O)(O)O)cc1 (stereo not given) | > 100 µM | > 100 µM | > 100 µM | > 100 µM | > 100 µM | > 100 µM | > 100 µM | – | > 100 µM | > 100 µM | 68.3 µM | > 100 µM | > 100 µM | > 100 µM | > 100 µM | – | > 100 µM | > 100 µM | > 100 µM | > 100 µM |
| Cc1ccc(-n2[nH]nc(C(N)=O)c2=O)cc1 | > 100 µM | > 100 µM | > 100 µM | > 100 µM | > 100 µM | > 100 µM | > 100 µM | – | > 100 µM | > 100 µM | > 100 µM | > 100 µM | > 100 µM | > 100 µM | – | > 100 µM | > 100 µM | > 100 µM | > 100 µM | > 100 µM |
| Cc1cc(C)c2c(=O)cc(-c3cccc4ccccc34)[nH]c2n1 | > 100 µM | > 100 µM | > 100 µM | > 100 µM | 14.3 µM | 2.31 µM | > 100 µM | 26.4 µM | 3.29 µM | 18.6 µM | > 25.9 µM | 29 µM | > 48 µM | > 100 µM | > 19.9 µM | 1.74 µM | > 100 µM | 23.8 µM | 7.37 µM | – |
| CNc1ncccc1Nc1cc(=O)n2c3cccnc3n(C)c2c1 | > 100 µM | > 100 µM | > 100 µM | > 100 µM | > 100 µM | > 100 µM | > 100 µM | > 100 µM | – | > 100 µM | > 100 µM | > 100 µM | > 100 µM | > 100 µM | > 100 µM | > 100 µM | > 100 µM | > 100 µM | > 100 µM | 78.1 µM |
